Source: patent US12202829B2, “Heterocyclic compound” (FIMECS, Inc., priority 2018, dated 2025)

Key:
GSK3β [1] = biological target: T1, GSK3β (Homo sapiens, UniProt P49841); assay: In vitro degradation activity of GSK3β in THP1 cells, western blotting; assay type: cell-based; design: endogenous in cells; host or cells: THP1 (ATCC); conditions: test compound 10 μM, 24 hours, relative to DMSO control set at 100
Procedure: (§1) In vitro degradation activities of GSK3α/β and GCN2 of the example compounds were evaluated by the following method. THP1 cells were purchased from ATCC and cultured in RPMI-1640 supplemented with 10% FBS and 1% penicillin/streptomycin. THP1 cells were seeded at a density of 1×10^6 cells/well in 24-well plate and treated with DMSO control or Example 55 (1, 3, 10 μM), and then incubated for 24 hours. The cells were collected and lysed on ice for 30 minutes in RIPA buffer (Thermo Fisher #87787) containing a protease inhibitor cocktail (Sigma-Aldrich). The lysates were sonicated for 30 sec ON/30 sec OFF for ten cycles and centrifuged for 15 minutes at 15 krpm at 4° C. Protein concentrations were determined by the BCA assay (Thermo Fisher). Proteins were separated with Nu-PAGE (Thermo Fisher) and analyzed by western blotting (standard protocol) using antibodies of anti-GSK3α/β (Cell Signaling #5676), GCN2 (Cell Signaling #3302), and R-actin (Sigma #A2066) (FIG. 1). Bands (luminescent intensities) were quantified using LAS-4000 luminescent image analyzer (Fuji). The values of GSK3α/β and GCN2 were corrected by the internal control value of β-actin and analyzed relative to DMSO control set at 100. The remaining protein rate (%) are described as A≤25%, 25%<B≤50%, 50%<C≤75%, D>75% when the concentration of the test compound is 10 μM.

GCN2 [2] = biological target: T2, GCN2 (Homo sapiens, UniProt Q9P2K8, S808G); assay: KINOMEscan active site-dependent competitive binding assay, GCN2; conditions: test compound 1 μM; DMSO = 100% Ctrl, control compound = 0% Ctrl
T2 construct: purchased Discover X (KINOMEscan service)
T2 sequence (Q9P2K8 590-1001 S808G limits assumed): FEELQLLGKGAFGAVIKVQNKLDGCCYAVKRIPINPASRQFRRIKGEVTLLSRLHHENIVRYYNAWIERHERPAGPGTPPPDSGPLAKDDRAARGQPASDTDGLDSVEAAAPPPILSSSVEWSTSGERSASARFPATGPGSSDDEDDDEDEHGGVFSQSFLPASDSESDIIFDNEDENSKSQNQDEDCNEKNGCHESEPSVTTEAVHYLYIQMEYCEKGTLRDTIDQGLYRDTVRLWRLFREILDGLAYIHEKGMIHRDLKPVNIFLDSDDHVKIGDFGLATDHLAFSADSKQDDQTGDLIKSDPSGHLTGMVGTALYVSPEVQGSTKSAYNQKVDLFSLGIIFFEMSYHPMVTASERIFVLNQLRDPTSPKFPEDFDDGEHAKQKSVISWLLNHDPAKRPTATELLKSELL
Procedure: (§2) Each of GSK3a/B and GCN2 binding inhibitory activity was evaluated using active site-dependent competitive assay KINOMEscan provided by Discover X (Goldstein, D. M. et al. High-throughput kinase profiling as a platform for drug discovery. Nat. Rev. Drug Discovery. 7, 391-397 (2008)). the “% Ctrl” when the concentration of the test compound is 1 μM is shown in the table below. The “% Ctrl” is calculated by the following formula. (test compound signal−positive control compound signal)/(negative control compound signal−positive control compound signal)×100 • Negative control compound=DMSO (100% Ctrl) • Positive control compound=control compound (0% Ctrl)

GSK3α/β and GCN2 = assay: Ubiquitin-proteasome system dependency of degradation in THP1 cells with Epoxomicin; assay type: cell-based, human; conditions: test compound 10 μM with or without 1 μM Epoxomicin, 8 hours, FIG. 2
Procedure: THP1 cells were seeded at a density of 1×10^6 cells/well in 24-well plate and treated with DMSO control or Example 55 (10 μM) with or without 1 μM of Epoxomicin and incubated for 8 hours. The cells were collected and lysed on ice for 30 minutes in RIPA buffer (Thermo Fisher #87787) containing a protease inhibitor cocktail (Sigma-Aldrich). The lysates were sonicated for 30 sec ON/30 sec OFF for ten cycles and centrifuged for 15 minutes at 15 krpm at 4° C. Protein concentrations were determined by the BCA assay (Thermo Fisher). Proteins were separated with Nu-PAGE (Thermo Fisher) and analyzed by western blotting (standard protocol) using antibodies of anti-GSK3α/β Cell Signaling #5676), GCN2 (Cell Signaling #3302), and β-actin (Sigma #A2066) (FIG. 2).

GSK3α [3] = biological target: T3, GSK3α (Homo sapiens, UniProt P49840); assay: In vitro degradation activity of GSK3α in THP1 cells, western blotting; assay type: cell-based; design: endogenous in cells; host or cells: THP1 (ATCC); conditions: test compound 10 μM, 24 hours, relative to DMSO control set at 100
Procedure: as §1

[4] = biological target: T4, human XIAP_BIR3 domain purified protein (Homo sapiens, UniProt P98170); assay: XIAP binding inhibitory activity, HTRF method with b-Smac ligand; conditions: for inhibition at 3 µM: test compound 3 μM, first symbol of the cell, read-out: XIAP binding inhibition rate when the concentration of the test compound is 3 μM
T4 construct: purchased R & D
Procedure, shortened: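 HTRF competition: human XIAP BIR3 and C-terminally biotinylated Smac peptide AVPIAQK, each diluted to 90 nM before addition, in HEPES pH 7.5 buffer with NaCl, BSA, Triton X-100. Eu-cryptate anti-His/streptavidin-XL665 detection after ≥4 h at room temperature; inhibition % from 665/615 ratio versus no-compound control.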

GCN2 [5] = biological target: T5, GCN2 (Homo sapiens, UniProt Q9P2K8); assay: In vitro degradation activity of GCN2 in THP1 cells, western blotting; assay type: cell-based; conditions: test compound 10 μM, 24 hours, relative to DMSO control set at 100
T5 construct: endogenous in cells; host or cells: THP1 (ATCC)
Procedure: as §1

GSK3β [6] = biological target: T1, GSK3β; assay: KINOMEscan active site-dependent competitive binding assay, GSK3β; design: purchased Discover X (KINOMEscan service); conditions: test compound 1 μM; DMSO = 100% Ctrl, control compound = 0% Ctrl
Procedure: as §2

GSK3α [7] = biological target: T3, GSK3α; assay: KINOMEscan active site-dependent competitive binding assay, GSK3α; design: purchased Discover X (KINOMEscan service); conditions: test compound 1 μM; DMSO = 100% Ctrl, control compound = 0% Ctrl
Procedure: as §2

XIAP = biological target: T6, XIAP (Homo sapiens, UniProt P98170); assay: In vitro degradation activity of XIAP in THP1 cells, western blotting; assay type: cell-based; conditions: test compound 10 μM, 24 hours, relative to DMSO control set at 100
T6 construct: endogenous in cells; host or cells: THP1 (ATCC)
Procedure: In vitro degradation activities of XIAP of the example compounds were evaluated by the following method. THP1 cells were purchased from ATCC and cultured in RPMI-1640 supplemented with 10% FBS and 1% penicillin/streptomycin. THP1 cells were seeded at a density of 1×10^6 cells/well in 24-well plate and treated with DMSO control or Example 86 and 87 (0.001, 0.01, 0.1, 1, 10 μM), and then incubated for 24 hours. The cells were collected and lysed on ice for 30 minutes in lysis buffer (0.5% Triton X-100, 0.01 M Tris-HCl (pH 8.0), 0.15 M NaCl) containing a protease inhibitor cocktail (Sigma-Aldrich). The lysates were sonicated for 30 sec ON/30 sec OFF for ten cycles and centrifuged for 15 minutes at 15 krpm at 4° C. Protein concentrations were determined by the BCA assay (Thermo Fisher). Proteins were separated with Nu-PAGE (Thermo Fisher) and analyzed by western blotting (standard protocol) using antibodies of anti-XIAP (Cell Signaling #14334), and β-actin (Sigma #A2066). Bands (luminescent intensities) were quantified using LAS-4000 luminescent image analyzer (Fuji). The values of XIAP were corrected by the internal control value of β-actin and analyzed relative to DMSO control set at 100. The remaining protein rate (%) are described as A≤25%, 25%<B≤50%, 50%<C≤75%, D>75% when the concentration of the test compound is 10 μM.

T4 sequence (P98170 252-356 limits assumed): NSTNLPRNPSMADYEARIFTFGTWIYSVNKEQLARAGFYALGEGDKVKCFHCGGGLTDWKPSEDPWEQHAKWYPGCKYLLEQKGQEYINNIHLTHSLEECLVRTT
T6 sequence (P98170 whole entry): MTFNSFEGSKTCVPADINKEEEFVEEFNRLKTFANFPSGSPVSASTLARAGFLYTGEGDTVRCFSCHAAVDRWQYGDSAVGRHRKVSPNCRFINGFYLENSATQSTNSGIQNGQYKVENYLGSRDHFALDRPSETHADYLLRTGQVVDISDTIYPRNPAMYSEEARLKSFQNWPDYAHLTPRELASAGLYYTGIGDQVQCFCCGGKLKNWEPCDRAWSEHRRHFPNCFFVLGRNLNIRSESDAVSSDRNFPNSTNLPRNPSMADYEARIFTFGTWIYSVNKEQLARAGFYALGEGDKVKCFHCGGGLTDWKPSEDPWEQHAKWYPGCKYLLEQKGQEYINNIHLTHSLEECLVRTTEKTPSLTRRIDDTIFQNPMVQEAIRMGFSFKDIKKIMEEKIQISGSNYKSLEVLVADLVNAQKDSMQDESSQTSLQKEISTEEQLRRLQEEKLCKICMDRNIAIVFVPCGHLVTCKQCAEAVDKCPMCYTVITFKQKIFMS
T3 sequence (P49840 whole entry): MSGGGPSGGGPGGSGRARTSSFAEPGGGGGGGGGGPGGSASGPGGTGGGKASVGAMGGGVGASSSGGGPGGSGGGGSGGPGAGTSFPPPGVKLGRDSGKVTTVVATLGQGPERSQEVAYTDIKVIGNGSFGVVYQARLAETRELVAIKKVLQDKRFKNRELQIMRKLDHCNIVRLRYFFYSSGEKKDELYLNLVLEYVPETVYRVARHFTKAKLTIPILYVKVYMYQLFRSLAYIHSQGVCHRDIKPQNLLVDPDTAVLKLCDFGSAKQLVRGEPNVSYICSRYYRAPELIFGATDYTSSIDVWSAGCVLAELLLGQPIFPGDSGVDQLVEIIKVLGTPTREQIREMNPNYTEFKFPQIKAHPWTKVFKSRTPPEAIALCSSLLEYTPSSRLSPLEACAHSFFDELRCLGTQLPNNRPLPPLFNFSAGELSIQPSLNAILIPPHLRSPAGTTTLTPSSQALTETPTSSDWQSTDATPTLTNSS
T1 sequence (P49841 whole entry): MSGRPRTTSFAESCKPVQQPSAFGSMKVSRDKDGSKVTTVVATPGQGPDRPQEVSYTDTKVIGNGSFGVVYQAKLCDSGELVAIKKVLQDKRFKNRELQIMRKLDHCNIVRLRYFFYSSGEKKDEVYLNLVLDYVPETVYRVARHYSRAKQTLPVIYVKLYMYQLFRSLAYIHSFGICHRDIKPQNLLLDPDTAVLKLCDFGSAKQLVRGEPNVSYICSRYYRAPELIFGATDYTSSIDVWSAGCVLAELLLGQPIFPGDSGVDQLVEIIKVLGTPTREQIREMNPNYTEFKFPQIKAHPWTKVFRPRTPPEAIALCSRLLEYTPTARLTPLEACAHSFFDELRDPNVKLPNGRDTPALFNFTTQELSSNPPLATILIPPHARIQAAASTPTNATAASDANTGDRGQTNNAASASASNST
T5 sequence (Q9P2K8 whole entry): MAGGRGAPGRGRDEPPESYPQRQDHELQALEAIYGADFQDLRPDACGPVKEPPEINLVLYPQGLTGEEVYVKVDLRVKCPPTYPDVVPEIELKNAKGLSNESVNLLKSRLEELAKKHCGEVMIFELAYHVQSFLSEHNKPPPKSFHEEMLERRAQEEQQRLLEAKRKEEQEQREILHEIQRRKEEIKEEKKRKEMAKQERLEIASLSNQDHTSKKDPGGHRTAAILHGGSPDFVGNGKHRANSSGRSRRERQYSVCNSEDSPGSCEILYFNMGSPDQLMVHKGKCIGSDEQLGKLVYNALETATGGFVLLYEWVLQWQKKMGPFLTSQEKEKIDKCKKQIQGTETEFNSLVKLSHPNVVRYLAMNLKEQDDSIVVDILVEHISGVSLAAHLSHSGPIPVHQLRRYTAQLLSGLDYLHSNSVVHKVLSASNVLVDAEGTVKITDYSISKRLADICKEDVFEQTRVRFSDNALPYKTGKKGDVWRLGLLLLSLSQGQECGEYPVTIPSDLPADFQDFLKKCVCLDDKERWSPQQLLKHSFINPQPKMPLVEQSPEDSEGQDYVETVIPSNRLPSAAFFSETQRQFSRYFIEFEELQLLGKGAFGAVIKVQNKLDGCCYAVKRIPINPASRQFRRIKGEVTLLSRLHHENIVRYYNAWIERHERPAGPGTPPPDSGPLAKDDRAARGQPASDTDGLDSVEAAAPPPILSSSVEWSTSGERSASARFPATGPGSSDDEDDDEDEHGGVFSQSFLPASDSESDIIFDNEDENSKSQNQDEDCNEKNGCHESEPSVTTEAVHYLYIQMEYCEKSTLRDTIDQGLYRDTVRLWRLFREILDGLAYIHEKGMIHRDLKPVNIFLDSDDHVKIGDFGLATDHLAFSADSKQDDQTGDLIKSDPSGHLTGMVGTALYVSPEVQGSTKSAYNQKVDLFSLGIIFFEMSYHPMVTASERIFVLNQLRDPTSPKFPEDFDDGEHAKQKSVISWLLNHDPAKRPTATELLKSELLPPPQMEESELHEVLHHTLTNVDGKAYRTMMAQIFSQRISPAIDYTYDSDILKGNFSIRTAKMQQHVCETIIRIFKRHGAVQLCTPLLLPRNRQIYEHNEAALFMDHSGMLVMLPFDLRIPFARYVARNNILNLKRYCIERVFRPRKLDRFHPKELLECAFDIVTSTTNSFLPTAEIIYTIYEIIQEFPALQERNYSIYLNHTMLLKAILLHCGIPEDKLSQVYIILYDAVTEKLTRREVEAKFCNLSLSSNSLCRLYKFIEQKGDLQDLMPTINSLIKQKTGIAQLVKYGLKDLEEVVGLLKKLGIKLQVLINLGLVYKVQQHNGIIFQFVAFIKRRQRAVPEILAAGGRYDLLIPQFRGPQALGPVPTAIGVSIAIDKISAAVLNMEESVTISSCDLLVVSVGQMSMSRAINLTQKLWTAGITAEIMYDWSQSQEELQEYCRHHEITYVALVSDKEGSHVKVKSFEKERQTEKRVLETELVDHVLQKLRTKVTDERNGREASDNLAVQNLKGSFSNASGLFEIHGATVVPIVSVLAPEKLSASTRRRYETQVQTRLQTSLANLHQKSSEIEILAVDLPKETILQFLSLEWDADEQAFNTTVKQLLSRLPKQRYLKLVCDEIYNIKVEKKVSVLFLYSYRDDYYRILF

SMILES	remaining protein rate (%) GSK3β (GSK3β [1])	remaining binding at 1 µM (GCN2 [2]) [%]	degradation activity of GSK3α/β and GCN2 with proteasome inhibitor Epoxomicin (GSK3α/β and GCN2)	remaining protein rate (%) GSK3α (GSK3α [3])	inhibition at 3 µM [4] [%]	remaining protein rate (%) GCN2 (GCN2 [5])	remaining binding at 1 µM (GSK3β [6]) [%]	remaining binding at 1 µM (GSK3α [7]) [%]	IC50 ([4]; second symbol of the cell, read-out: XIAP binding 50% inhibitory concentration (IC50 value)) [nM]	remaining protein rate (%) XIAP (XIAP)
CN[C@@H](C)C(=O)N[C@H](C(=O)N1CCN(C(=O)c2c(C(=O)NCCOCCOCC(=O)N3CCN(c4ccc(Nc5ncc6nnn(-c7ccc(OC)c(OC)c7)c6n5)cc4)CC3)c3ccc(OC)cc3n2C)CC1)C1CCCCC1 [Example 55, 2-(4-((S)-2-Cyclohexyl-2-((S)-2-(methylamino)propanamido)acetyl)piperazine-1-carbonyl)-N-(2-(2-(2-(4-(4-((3-(3,4-dimethoxyphenyl)-3H-[1,2,3]triazolo[4,5-d]pyrimidin-5-yl)amino)phenyl)piperazin-1-yl)-2-oxoethoxy)ethoxy)ethyl)-6-methoxy-1-methyl-1H-indole-3-carboxamide]	B (25%<B≤50%)	0.35	cancelled by the proteasome inhibitor Epoxomicin treatment	B (25%<B≤50%)	> 75	A (A≤25%)	11	39	–	–
CN[C@@H](C)C(=O)N[C@H](C(=O)N1CCN(C(=O)c2c(C(=O)NCCOCCOCCNC(=O)c3c(C(=O)N4CCN(C(=O)[C@@H](NC(=O)[C@H](C)NC)C5CCCCC5)CC4)n(C)c4ccc(F)cc34)c3cc(F)ccc3n2C)CC1)C1CCCCC1 [Example 86, N,N′-((Ethan-1,2-diylbis(oxy))bis(ethan-2,1-diyl))bis(2-(4-((S)-2-cyclohexyl-2-((S)-2-(methylamino)propanamido)acetyl)piperazine-1-carbonyl)-5-fluoro-1-methyl-1H-indole-3-carboxamide) bistrifluoroacetate]	–	–	–	–	> 75	–	–	–	< 300	C (50%<C≤75%)
CN[C@@H](C)C(=O)N[C@H](C(=O)N1CCN(C(=O)c2cc3cc(F)ccc3n2CC(=O)NCCOCCNC(=O)Cn2c(C(=O)N3CCN(C(=O)[C@@H](NC(=O)[C@H](C)NC)C4CCCCC4)CC3)cc3cc(F)ccc32)CC1)C1CCCCC1 [Example 87, (S)—N—((S)-1-Cyclohexyl-2-(4-(1-(2-((2-(2-(2-(2-(4-((R)-2-cyclohexyl-2-((R)-2-(methylamino)propanamide)acetyl)piperazine-1-carbonyl)-5-fluoro-1H-indol-1-yl)acetamide)ethoxy)ethyl)amino)-2-oxoethyl)-5-fluoro-1H-indole-2-carbonyl)piperazin-1-yl)-2-oxoethyl)-2-(methylamino)propanamide bistrifluoroacetate]	–	–	–	–	> 75	–	–	–	–	C (50%<C≤75%)
